Level of colonisation data for one compound are collected here from US20070110758A1, “Method for inhibiting bacterial colonisation” (ADELAIDE RESERCH & INNOVATION PTY LTD, priority 2003, published 2007).

The test has as its system H. pylori. Briefly: Level of H. pylori colonisation in gastric body, transitional zone and antrum of inoculated mice, counted on Giemsa stained sections. It counts as in vivo, Helicobacter pylori. Conditions: Example 6; N-acetyl cysteine alone; FIGS. 3, 4. The method, then: Female C57BL/6 mice, approximately six week old, were orally inoculated with Sydney strain 1 (SS1) of H. pylori (1.0×10^8 bacteria delivered in 0.1 ml of 0.9% (w/v) sodium chloride) according to Lee et al., (1997) Gastroenterology 112:1386-1397 (the entire disclosure of which is incorporated herein by reference) and treated twice daily by oro-gastric gavage for 21 days, starting 4 weeks after inoculation (Scheme 1 below). Animals were housed in the Animal House at the Women's and Children's Hospital. All animals were fed mouse chow and water ad libitum. [drawing 1] […]
The level of colonisation in the gastric body, transitional zone and antrum of mice inoculated with H. pylori was counted in 9-12 consecutive fields on Giemsa stained sections.
To assess the effect of the mucolytic agent N-acetyl cysteine […] on colonisation, the level of colonisation in the gastric body, transitional zone and antrum in mice inoculated with H. pylori was counted in 9-12 consecutive fields on Giemsa stained sections.
The level of colonisation in the gastric body, transitional zone and antrum in mice inoculated with H. pylori was counted in 9-12 consecutive fields on Giemsa stained sections.
Colonisation (Giemsa staining): The level of colonisation in the gastric body, transitional zone and antrum was counted in 9-12 consecutive fields on stained sections. […]

For the compound `CC(=O)N[C@@H](CS)C(=O)O` [NAC, N-acetyl cysteine], the level of colonisation result was “no effect”.
